The source of these data is patent US20240083857A1, “2-Methyl-Quinazolines” (Bayer Pharma Aktiengesellschaft, priority 2017, published 2024).

Read-outs that look alike come from different tables or passages of the source.

In assay [1] the target is Epidermal Growth Factor Receptor (EGFR) (Homo sapiens (Human), UniProt P00533). In words: EGFR kinase assay (TR-FRET). The format is biochemical. To be noted: read-out: EGFR kinase inhibition IC50. An outline of the steps:
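EGFR purified from A431 cells was preincubated with compound 15 min at 22° C in pH 7.0 Hepes buffer with MgCl2, MnCl2 and vanadate before reaction with a biotinylated peptide. After EDTA stop, phosphopeptide was detected by TR-FRET (anti-phosphotyrosine Tb-cryptate, streptavidin-XL665) as the 665/620 nm emission ratio.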
A general note: In TR-FRET formats the signal depends on donor and acceptor labels being close together.

Assay [2] concerns the target K-Ras^G12C : hSOS1 interaction (Homo sapiens, UniProt Q07889). Put plainly: Biochemical assay 1: K-Ras^G12C interaction assay with hSOS1 (HTRF). The format is binding. To be noted: read-out: Assay 1 (KRAS-SOS Interaction) activity expressed as IC50.

Sequence of Epidermal Growth Factor Receptor (EGFR) (P00533 25-1210): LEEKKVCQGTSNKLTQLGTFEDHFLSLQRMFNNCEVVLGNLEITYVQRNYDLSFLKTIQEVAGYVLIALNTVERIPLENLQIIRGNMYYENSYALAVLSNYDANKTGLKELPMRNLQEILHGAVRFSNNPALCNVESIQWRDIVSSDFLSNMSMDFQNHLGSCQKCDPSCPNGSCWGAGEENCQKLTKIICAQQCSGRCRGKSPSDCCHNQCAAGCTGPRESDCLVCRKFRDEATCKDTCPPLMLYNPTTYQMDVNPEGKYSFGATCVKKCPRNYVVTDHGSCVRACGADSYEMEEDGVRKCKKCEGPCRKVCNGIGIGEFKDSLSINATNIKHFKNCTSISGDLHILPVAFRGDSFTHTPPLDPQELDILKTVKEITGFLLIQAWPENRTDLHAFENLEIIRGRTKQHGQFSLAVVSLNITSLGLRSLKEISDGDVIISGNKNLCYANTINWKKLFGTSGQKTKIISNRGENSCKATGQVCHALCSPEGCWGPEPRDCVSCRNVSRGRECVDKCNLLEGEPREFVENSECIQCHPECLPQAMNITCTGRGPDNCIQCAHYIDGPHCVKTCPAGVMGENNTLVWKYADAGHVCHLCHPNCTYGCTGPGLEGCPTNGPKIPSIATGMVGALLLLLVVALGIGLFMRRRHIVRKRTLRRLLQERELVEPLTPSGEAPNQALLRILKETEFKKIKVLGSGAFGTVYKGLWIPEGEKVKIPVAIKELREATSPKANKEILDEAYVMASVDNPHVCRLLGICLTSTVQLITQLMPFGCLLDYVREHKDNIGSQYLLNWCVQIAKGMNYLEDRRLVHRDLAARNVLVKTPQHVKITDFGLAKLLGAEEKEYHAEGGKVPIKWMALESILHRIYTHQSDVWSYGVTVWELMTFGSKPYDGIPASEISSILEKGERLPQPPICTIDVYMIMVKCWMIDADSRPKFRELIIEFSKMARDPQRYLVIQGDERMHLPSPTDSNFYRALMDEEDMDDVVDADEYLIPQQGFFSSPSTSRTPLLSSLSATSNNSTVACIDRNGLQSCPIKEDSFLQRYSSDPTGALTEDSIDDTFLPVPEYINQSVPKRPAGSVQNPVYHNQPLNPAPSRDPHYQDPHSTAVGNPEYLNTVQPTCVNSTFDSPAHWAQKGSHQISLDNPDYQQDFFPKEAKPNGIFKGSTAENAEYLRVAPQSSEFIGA

For the compound `COc1cc2nc(C)nc(NC(C)c3csc4ccccc34)c2cc1OC` (stereo not drawn) [Example 27, N-[1-(1-benzothiophen-3-yl)ethyl]-6,7-dimethoxy-2-methylquinazolin-4-amine], the IC50 is greater than 20 µM in assay [1] (values given in μM) and 368 nM in assay [2].

In the case of `COc1cc2nc(C)nc(N[C@H](C)c3cccc(-n4cccn4)c3)c2cc1OC` [Example 341, 6,7-dimethoxy-2-methyl-N-{(1R)-1-[3-(1H-pyrazol-1-yl)phenyl]ethyl}quinazolin-4-amine], the IC50 in assay [1] (values given in μM) is greater than 20 µM; in assay [2], 2830 nM.

Take `COc1cc2nc(C)nc(NC(C)c3ccc(-c4ccccc4CNCc4ccccc4)s3)c2cc1OC` (stereo not drawn) [Example 365, N-[1-(5-{2-[(benzylamino)methyl]phenyl}thiophen-2-yl)ethyl]-6,7-dimethoxy-2-methylquinazolin-4-amine]: the values for the IC50 in assay [1] (values given in μM) and in assay [2] were greater than 20 µM and 469 nM, respectively.

As to `CC[C@@H](O)c1ccccc1-c1ccc(C(C)Nc2nc(C)nc3cc(OC)c(OC)cc23)s1` (stereo partly drawn) [Example 349, (1R)-1-[2-(5-{1-[(6,7-dimethoxy-2-methylquinazolin-4-yl)amino]ethyl}thiophen-2-yl)phenyl]propan-1-ol], the IC50 is greater than 20 µM in assay [1] (values given in μM) and 231 nM in assay [2].

As for `COc1cc2nc(C)nc(NC(C)c3ccc(-c4ccccc4-c4cn[nH]c4)s3)c2cc1OC` (stereo not drawn) [Example 361, 6,7-dimethoxy-2-methyl-N-[1-{5-[2-(1H-pyrazol-4-yl)phenyl]thiophen-2-yl}ethyl]-quinazolin-4-amine], the IC50 in assay [1] (values given in μM) is greater than 20 µM; in assay [2], 2460 nM.

Consider `Cc1nc(N[C@H](C)c2ccc(F)cc2)c2cc(N=S(C)(C)=O)ccc2n1` [Example 32, 6-{[dimethyl(oxido)-lambda6-sulfanylidene]amino}-N-[(1R)-1-(4-fluorophenyl)ethyl]-2-methylquinazolin-4-amine], for which the values for the IC50 in assay [1] (values given in μM) and in assay [2] were greater than 20 µM and 1070 nM, respectively.

On to `COc1cc2nc(C)nc(NC(C)c3c(C)nc4ccccn34)c2cc1OC` (stereo not drawn) [Example 26, 6,7-dimethoxy-2-methyl-N-[1-(2-methylimidazo[1,2-a]pyridin-3-yl)ethyl]quinazolin-4-amine], for which the IC50 is greater than 20 µM in assay [1] (values given in μM) and 9550 nM in assay [2].

On to `COc1cc2nc(C)nc(N[C@H](C)c3cccc(-c4cn[nH]c4)c3)c2cc1OCc1ccccc1` [Example 344, 6-(benzyloxy)-7-methoxy-2-methyl-N-{(1R)-1-[3-(1H-pyrazol-4-yl)phenyl]ethyl}-quinazolin-4-amine], for which the IC50 was greater than 20 µM in assay [1] (values given in μM) and 931 nM in assay [2].

In the case of `CCCCNCc1ccccc1-c1ccc(C(C)Nc2nc(C)nc3cc(OC)c(OC)cc23)s1` (stereo not drawn) [Example 366, N-[1-(5-{2-[(butylamino)methyl]phenyl}thiophen-2-yl)ethyl]-6,7-dimethoxy-2-methylquinazolin-4-amine], the figures for the IC50 in assay [1] (values given in μM) and in assay [2] were greater than 20 µM and 97.6 nM, respectively.

In the case of `COc1cc2nc(C)nc(N[C@H](C)c3cccc(-c4cn[nH]c4)c3)c2cc1O` [Example 345, 7-methoxy-2-methyl-4-({(1R)-1-[3-(1H-pyrazol-4-yl)phenyl]ethyl}amino)quinazolin-6-ol], the IC50 in assay [1] (values given in μM) is greater than 20 µM; in assay [2] it was 14600 nM.

For `COc1cc2nc(C)nc(NC(C)c3ccc(-c4ccccc4[C@H](C)N)s3)c2cc1OC` (stereo in doubt) [Example 360, N-[1-(5-{2-[1-aminoethyl]phenyl}thiophen-2-yl)ethyl]-6,7-dimethoxy-2-methylquinazolin-4-amine], the results for the 50% inhibitory concentration (IC50) in assay [1] (values given in μM) and in assay [2] were greater than 20 µM and 195 nM, respectively.

Consider `COc1cc2nc(C)nc(N[C@H](C)c3cccc(-c4ccc(O)nc4)c3)c2cc1OC` [Example 68, 5-(3-{(1R)-1-[(6,7-dimethoxy-2-methylquinazolin-4-yl)amino]ethyl}phenyl)pyridin-2-ol], for which the half-maximal inhibitory concentration (IC50) was 6.92 µM in assay [1] (unit inferred) and 137 nM in assay [2].

Consider `COc1cc2nc(C)nc(NC(C)c3ccc4c(c3)NC(=O)CO4)c2cc1OC` (stereo not drawn) [Example 34, 6-{1-[(6,7-dimethoxy-2-methylquinazolin-4-yl)amino]ethyl}-2H-1,4-benzoxazin-3(4H)-one], for which the results for the half-inhibitory concentration (IC50) in assay [1] (values given in μM) and in assay [2] were greater than 20 µM and 4230 nM, respectively.

As to `COc1ccc2cc(C(C)Nc3nc(C)nc4cc(OC)c(OC)cc34)ccc2c1` (stereo not drawn) [Example 35, 6,7-dimethoxy-N-[1-(6-methoxy-2-naphthyl)ethyl]-2-methylquinazolin-4-amine], the IC50 in assay [1] (values given in μM) is greater than 20 µM; in assay [2], 4720 nM.

For the compound `COc1cc2nc(C)nc(NC(C)c3ccc(-c4ccccc4[C@@H](C)N)s3)c2cc1OC` (stereo in doubt) [Example 359, N-[1-(5-{2-[1-aminoethyl]phenyl}thiophen-2-yl)ethyl]-6,7-dimethoxy-2-methylquinazolin-4-amine], the IC50 in assay [1] (values given in μM) was greater than 20 µM; in assay [2], 234 nM.

With `COc1cc2nc(C)nc(N[C@H](C)c3cccc(-c4cn[nH]c4)c3)c2cc1OCCC(C)C` [Example 351, 7-methoxy-2-methyl-6-(3-methylbutoxy)-N-{(1R)-1-[3-(1H-pyrazol-4-yl)phenyl]ethyl}quinazolin-4-amine], the concentration for half-maximal inhibition (IC50) was greater than 20 µM in assay [1] (values given in μM) and 1710 nM in assay [2].

As for `COc1cc2nc(C)nc(NC(C)c3ccc4c(c3)CCCC4)c2cc1OC` (stereo not drawn) [Example 25, 6,7-dimethoxy-2-methyl-N-[1-(5,6,7,8-tetrahydronaphthalen-2-yl)ethyl]quinazolin-4-amine], the IC50 in assay [1] (values given in μM) was greater than 20 µM; in assay [2], 541 nM.

With `Cc1nc(N[C@H](C)c2cccc(Cl)c2)c2cc(Br)ccc2n1` [Example 363, 6-bromo-N-[(1R)-1-(3-chlorophenyl)ethyl]-2-methylquinazolin-4-amine], the results for the IC50 in assay [1] (values given in μM) and in assay [2] were greater than 20 µM and 12400 nM, respectively.

As for `CCNCc1ccccc1-c1ccc(C(C)Nc2nc(C)nc3cc(OC)c(OC)cc23)s1` (stereo not drawn) [Example 367, N-[1-(5-{2-[(ethylamino)methyl]phenyl}thiophen-2-yl)ethyl]-6,7-dimethoxy-2-methylquinazolin-4-amine], the half-maximal inhibitory concentration (IC50) is greater than 20 µM in assay [1] (values given in μM) and 71.6 nM in assay [2].

In the case of `COc1cc2nc(C)nc(NC(C)c3ccc(-c4ccccc4[C@@H](C)NC(=O)OC(C)(C)C)s3)c2cc1OC` (stereo in doubt) [Example 358, tert-butyl {1-[2-(5-{1-[(6,7-dimethoxy-2-methylquinazolin-4-yl)amino]ethyl}thiophen-2-yl)phenyl]ethyl}carbamate], the 50% inhibitory concentration (IC50) was greater than 20 µM in assay [1] (values given in μM) and 1440 nM in assay [2].

Consider `COc1cc2nc(C)nc(N[C@H](C)c3ccc(-c4ccccc4CCN)s3)c2cc1OC` (stereo in doubt) [Example 357, N-[1-{5-[2-(2-aminoethyl)phenyl]thiophen-2-yl}ethyl]-6,7-dimethoxy-2-methylquinazolin-4-amine], for which the IC50 in assay [1] (values given in μM) is greater than 20 µM; in assay [2] it was 51.2 nM.

On to `COc1cc2nc(C)nc(NC(C)c3cccc4c3CCO4)c2cc1OC` (stereo not drawn) [Example 22, N-[1-(2,3-dihydro-1-benzofuran-4-yl)ethyl]-6,7-dimethoxy-2-methylquinazolin-4-amine], for which the IC50 in assay [1] (values given in μM) is greater than 20 µM; in assay [2], 177 nM.

Turning to `COc1cc2nc(C)nc(NC(C)c3ccc4c(c3)OCO4)c2cc1OC` (stereo not drawn) [Example 23, N-[1-(1,3-benzodioxol-5-yl)ethyl]-6,7-dimethoxy-2-methylquinazolin-4-amine], the IC50 was greater than 20 µM in assay [1] (values given in μM) and 2720 nM in assay [2].

In the case of `COc1cc2nc(C)nc(NC(C)c3ccc(-c4ccccc4CNC4CCCC4)s3)c2cc1OC` (stereo not drawn) [Example 364, N-[1-(5-{2-[(cyclopentylamino)methyl]phenyl}thiophen-2-yl)ethyl]-6,7-dimethoxy-2-methylquinazolin-4-amine], the IC50 is greater than 20 µM in assay [1] (values given in μM) and 129 nM in assay [2].

As to `CCOc1cc2c(N[C@H](C)c3cccc(-c4cn[nH]c4)c3)nc(C)nc2cc1OC` [Example 355, 6-Ethoxy-7-methoxy-2-methyl-N-{(1R)-1-[3-(1H-pyrazol-4-yl)phenyl]ethyl}-quinazolin-4-amine], the IC50 was greater than 20 µM in assay [1] (values given in μM) and 485 nM in assay [2].

Turning to `COc1cc2nc(C)nc(NC(C)c3ccc(-c4ccccc4CCNC(=O)OC(C)(C)C)s3)c2cc1OC` (stereo not drawn) [Example 352, tert-butyl {2-[2-(5-{1-[(6,7-dimethoxy-2-methylquinazolin-4-yl)amino]ethyl}thiophen-2-yl)phenyl]ethyl}carbamate], the IC50 is greater than 20 µM in assay [1] (values given in μM) and 16000 nM in assay [2].

Regarding `COc1cc2nc(C)nc(N[C@H](C)c3cccc(-c4cn[nH]c4)c3)c2cc1OCC1CC1` [Example 346, 6-(cyclopropylmethoxy)-7-methoxy-2-methyl-N-{(1R)-1-[3-(1H-pyrazol-4-yl)phenyl]ethyl}quinazolin-4-amine], the results for the IC50 in assay [1] (values given in μM) and in assay [2] were greater than 20 µM and 342 nM, respectively.

For `COc1cc2nc(C)nc(NC(C)c3ccc4c(c3)CCO4)c2cc1OC` (stereo not drawn) [Example 24, N-[1-(2,3-dihydro-1-benzofuran-5-yl)ethyl]-6,7-dimethoxy-2-methylquinazolin-4-amine], the IC50 is greater than 20 µM in assay [1] (values given in μM) and 701 nM in assay [2].

As to `COc1cc2nc(C)nc(N[C@H](C)c3cccc(Br)c3)c2cc1OCc1ccccc1` [Example 343, 6-(benzyloxy)-N-[(1R)-1-(3-bromophenyl)ethyl]-7-methoxy-2-methylquinazolin-4-amine], the values for the 50% inhibitory concentration (IC50) in assay [1] (values given in μM) and in assay [2] were greater than 20 µM and 1680 nM, respectively.

As for `COc1cc2nc(C)nc(N[C@H](C)c3cccc(-c4cn[nH]c4)c3)c2cc1OCC1COC1` [Example 354, 7-methoxy-2-methyl-6-(oxetan-3-ylmethoxy)-N-{(1R)-1-[3-(1H-pyrazol-4-yl)phenyl]ethyl}quinazolin-4-amine], the IC50 in assay [1] (values given in μM) is greater than 20 µM; in assay [2] it was 313 nM.

As a reminder, the IC50 is the concentration needed to halve the response being measured.
